Measured values: patent US3960877A, “N-monosubstituted-2,3-pyridinedicarboxamides, and related compounds” (priority 1974, dated 1976)

Assays:
Type in all cases: in vivo
Lambsquarters [1] = experiment: Postemergence herbicidal activity, % control of plant growth; conditions: Chenopodium album, post-emergence, 264 h, 8 lb/acre, about 11 days
Description: (§1) By the term "postemergence" is meant that the compound is applied to the plant sought to be controlled after it has emerged from the soil surface. This term is also used to describe the application of herbicidally active compounds to soil surface in and around growing plants sought to be controlled for purposes of effecting root absorption by the undesirable plant species.
(§2) In the postemergence test the soil and developing plants were sprayed approximately 2 weeks after the seeds were sown. The compound was applied at the rate of 8 pounds per acre from about a 2 percent by weight solution of the test compound in acetone and/or alcohol. The postemergence herbicidal activity was measured in the same way as the preemergence activity; i.e. visual observation approximately 11 days after spraying, and expressed as the percent control of plant growth.
(§3) **Postemergence test: compound applied at rate of 8 lb/acre

Snapbeans [2] = experiment: as above; conditions: post-emergence, 264 h, 8 lb/acre, about 11 days
Description: as §1, §2, §3

Corn [3] = experiment: as above; conditions: Zea mays, post-emergence, 264 h, 8 lb/acre, about 11 days
Description: as §1, §2, §3

Cucumber [4] = experiment: as above; conditions: Cucumis sativus, post-emergence, 264 h, 8 lb/acre, about 11 days
Description: as §1, §2, §3

Foxtail [5] = experiment: as above; conditions: Setaria, post-emergence, 264 h, 8 lb/acre, about 11 days
Description: as §1, §2, §3

Barnyard Grass [6] = experiment: as above; conditions: Echinochloa crus-galli, post-emergence, 264 h, 8 lb/acre, about 11 days
Description: as §1, §2, §3

Crabgrass [7] = experiment: as above; conditions: Digitaria sanguinalis, post-emergence, 264 h, 8 lb/acre, about 11 days
Description: as §1, §2, §3

Nutgrass [8] = experiment: as above; conditions: post-emergence, 264 h, 8 lb/acre, about 11 days
Description: as §1, §2, §3

Velvetleaf [9] = experiment: as above; conditions: Abutilon theophrasti, post-emergence, 264 h, 8 lb/acre, about 11 days
Description: as §1, §2, §3

Johnsongrass [10] = experiment: as above; conditions: Sorghum halepense, post-emergence, 264 h, 8 lb/acre, about 11 days
Description: as §1, §2, §3

Chickweed [11] = experiment: as above; conditions: post-emergence, 264 h, 8 lb/acre, about 11 days
Description: as §1, §2, §3

Pigweed [12] = experiment: as above; conditions: Amaranthus retroflexus, post-emergence, 264 h, 8 lb/acre, about 11 days
Description: as §1, §2, §3

Cheatgrass [13] = experiment: as above; conditions: Bromus tectorum, post-emergence, 264 h, 8 lb/acre, about 11 days
Description: as §1, §2, §3

Wild Oats [14] = experiment: as above; conditions: Avena fatua, post-emergence, 264 h, 8 lb/acre, about 11 days
Description: as §1, §2, §3

Alfalfa [15] = experiment: as above; conditions: Medicago sativa, post-emergence, 264 h, 8 lb/acre, about 11 days
Description: as §1, §2, §3

Yellow Rocket [16] = experiment: as above; conditions: post-emergence, 264 h, 8 lb/acre, about 11 days
Description: as §1, §2, §3

Curled Dock [17] = experiment: as above; conditions: post-emergence, 264 h, 8 lb/acre, about 11 days
Description: as §1, §2, §3

Lambsquarters [18] = experiment: Preemergence herbicidal activity, % control of plant growth; conditions: Chenopodium album, pre-emergence, 504 h, 16 lb/acre, about 3 weeks
Description: (§4) By "preemergence" is meant that the compound is applied to the soil prior to emergence of the weed species sought to be controlled. This term, as used herein, also means the application of the herbicidal compounds falling within the scope of this disclosure to areas wherein useful or desirable plants are either growing or have been sown, but where the undesirable plants sought to be controlled have not as yet emerged.
(§5) In using the compound, seeds of the types of plants set forth in Table II were sown in fresh soil. In the preemergence test the soil was sprayed with a solution of the test compound immediately after the seeds were planted, and before any noticeable growth developed. The solution was about a 2 percent by weight solution of the compound in acetone and/or alcohol. The compound was applied at the rate of 16 pounds per acre of soil surface.
(§6) Approximately 3 weeks after spray application, the herbicidal activity of the compound was determined by visual observation of the treated area in comparison with untreated control areas. These observations are reported below in Table II wherein the average activity rating is reported as the percent control of plant growth.
(§7) *Preemergence test: compound applied at rate of 16 lb/acre

Snapbeans [19] = experiment: as above; conditions: pre-emergence, 504 h, 16 lb/acre, about 3 weeks
Description: as §4, §5, §6, §7

Corn [20] = experiment: as above; conditions: Zea mays, pre-emergence, 504 h, 16 lb/acre, about 3 weeks
Description: as §4, §5, §6, §7

Cucumber [21] = experiment: as above; conditions: Cucumis sativus, pre-emergence, 504 h, 16 lb/acre, about 3 weeks
Description: as §4, §5, §6, §7

Foxtail [22] = experiment: as above; conditions: Setaria, pre-emergence, 504 h, 16 lb/acre, about 3 weeks
Description: as §4, §5, §6, §7

Barnyard Grass [23] = experiment: as above; conditions: Echinochloa crus-galli, pre-emergence, 504 h; barnyard grass; 16 lb/acre; about 3 weeks
Description: as §4, §5, §6, §7

Crabgrass [24] = experiment: as above; conditions: Digitaria sanguinalis, pre-emergence, 504 h, 16 lb/acre, about 3 weeks
Description: as §4, §5, §6, §7

Nutgrass [25] = experiment: as above; conditions: pre-emergence, 504 h, 16 lb/acre, about 3 weeks
Description: as §4, §5, §6, §7

Velvetleaf [26] = experiment: as above; conditions: Abutilon theophrasti, pre-emergence, 504 h, 16 lb/acre, about 3 weeks
Description: as §4, §5, §6, §7

Johnsongrass [27] = experiment: as above; conditions: Sorghum halepense, pre-emergence, 504 h, 16 lb/acre, about 3 weeks
Description: as §4, §5, §6, §7

Chickweed [28] = experiment: as above; conditions: pre-emergence, 504 h, 16 lb/acre, about 3 weeks
Description: as §4, §5, §6, §7

Pigweed [29] = experiment: as above; conditions: Amaranthus retroflexus, pre-emergence, 504 h, 16 lb/acre, about 3 weeks
Description: as §4, §5, §6, §7

Cheatgrass [30] = experiment: as above; conditions: Bromus tectorum, pre-emergence, 504 h, 16 lb/acre, about 3 weeks
Description: as §4, §5, §6, §7

Wild Oats [31] = experiment: as above; conditions: Avena fatua, pre-emergence, 504 h, 16 lb/acre, about 3 weeks
Description: as §4, §5, §6, §7

Alfalfa [32] = experiment: as above; conditions: Medicago sativa, pre-emergence, 504 h, 16 lb/acre, about 3 weeks
Description: as §4, §5, §6, §7

Yellow Rocket [33] = experiment: as above; conditions: pre-emergence, 504 h, 16 lb/acre, about 3 weeks
Description: as §4, §5, §6, §7

Curled Dock [34] = experiment: as above; conditions: pre-emergence, 504 h, 16 lb/acre, about 3 weeks
Description: as §4, §5, §6, §7

CCCCC(CC)Cn1c(=O)[nH]c2cccnc2c1=O (stereo not shown) [3-(2-ethylhexyl)pyrido[3,2-d]pyrimidine-2,4(1H,3H)-dione]
pest or weed control at 8966.8 g/ha (Lambsquarters [1]): 100% | pest or weed control at 8966.8 g/ha (Snapbeans [2]): 0% | plant injury at 8966.8 g/ha (Corn [3]): 0% | pest or weed control at 8966.8 g/ha (Cucumber [4]): 20% | pest or weed control at 8966.8 g/ha (Foxtail [5]): 0% | pest or weed control at 8966.8 g/ha (Barnyard Grass [6]): 0% | pest or weed control at 8966.8 g/ha (Crabgrass [7]): 10% | pest or weed control at 8966.8 g/ha (Nutgrass [8]): 0% | pest or weed control at 8966.8 g/ha (Velvetleaf [9]): 0% | pest or weed control at 8966.8 g/ha (Johnsongrass [10]): 0% | pest or weed control at 8966.8 g/ha (Chickweed [11]): 50% | pest or weed control at 8966.8 g/ha (Pigweed [12]): 100% | pest or weed control at 8966.8 g/ha (Cheatgrass [13]): 0% | pest or weed control at 8966.8 g/ha (Wild Oats [14]): 0% | pest or weed control at 8966.8 g/ha (Alfalfa [15]): 0% | pest or weed control at 8966.8 g/ha (Yellow Rocket [16]): 90% | pest or weed control at 8966.8 g/ha (Curled Dock [17]): 10% | pest or weed control at 17933.6 g/ha (Lambsquarters [18]): 30% | pest or weed control at 17933.6 g/ha (Snapbeans [19]): 0% | plant injury at 17933.6 g/ha (Corn [20]): 0% | pest or weed control at 17933.6 g/ha (Cucumber [21]): 10% | pest or weed control at 17933.6 g/ha (Foxtail [22]): 0% | pest or weed control at 17933.6 g/ha (Barnyard Grass [23]): 0% | pest or weed control at 17933.6 g/ha (Crabgrass [24]): 10% | pest or weed control at 17933.6 g/ha (Nutgrass [25]): 0% | pest or weed control at 17933.6 g/ha (Velvetleaf [26]): 0% | pest or weed control at 17933.6 g/ha (Johnsongrass [27]): 0% | pest or weed control at 17933.6 g/ha (Chickweed [28]): 70% | pest or weed control at 17933.6 g/ha (Pigweed [29]): 0% | pest or weed control at 17933.6 g/ha (Cheatgrass [30]): 0% | pest or weed control at 17933.6 g/ha (Wild Oats [31]): 0% | pest or weed control at 17933.6 g/ha (Alfalfa [32]): 0% | pest or weed control at 17933.6 g/ha (Yellow Rocket [33]): 90% | pest or weed control at 17933.6 g/ha (Curled Dock [34]): 0%
